Results reported in patent US9175030B2, “Derivatives of avicin D and methods of making and using thereof” (priority 2012, dated 2015).

What was measured:
[1] = test system: HMLE cells expressing TWIST; experiment: Mammosphere formation, cancer stem cell model; type: cell-based, human; conditions: 60 nM, added day 7 and every 7th day, seen on day 21
Procedure: Human mammary epithelial cells were transfected with transcription factor TWIST acquiring mesenchymal stem cell-like traits, including the ability to form mammospheres. See Cano et al., 2000; Yang et al., Cell, 2004; Mani et al., 2008, which are all incorporated herein by reference.
HMLE cells expressing TWIST were plated at 100 cells/0.1 ml in 96-well plates. The cells were cultured in MEGM media supplemented with 20 ng/mL bFGF, 10 ng/mL EGF, 4 ug/mL heparin, and 1% methyl cellulose. Formation of spheres could be seen around day 7. Avicin D/Compound 8 (60 nM) was first added to the cultures on day 7 and subsequently every 7th day. […] See FIGS. 6A-D, which show mammospheres treated with 60 nM of Avicin D or Compound 8 for fourteen days. The ability of these agents to induce cell kill in both the tumor cell population as well as the stem-like cells enhances their potential for use as a cancer therapy.

[2] = test system: Raji; experiment: MTT growth inhibition, Raji; type: cell-based; conditions: Raji cells, 72 hrs
Procedure: (§1) The growth inhibitory effects of avicin D and oxetane derivative were measured using the MTT [3-(4,5-dimethylthiazol-2-yl)-2,5-diphenyl tetrazolium bromide] reduction assay as described in Haridas et al. (2001). Cells were cultured with varying concentrations of avicin D or oxetane in 96-well plates for 72 hrs at 37° C. At the end of 72 hrs, cells were stained with MTT for 2 hrs and then incubated with lysis buffer (20% SDS in 50% N,N-dimethylformamide) for another 6 hrs. Optical density at 570 nm was used as a measure of cell viability.
(§2) The cell lines 769P, A498, CAKI-1, and CAKI-2 are derived from primary human renal-cell cancers (RCC). A549 is a human lung adenocarcinoma epithelial cell line. B16F10 is a mouse melanoma cell line. BT474, BT 474 M1, BT549, MCF7, […], and ZR751 are breast cancer cell lines. CCRF-CEM, Jurkat, and MOLT4 are leukemia cell lines. HELA is cell line derived from cervical caner. HepG2 is a human hepatocellular liver carcinoma cell line. JeKo-1 is a mantle cell lymphoma (MCL) cell line. LnCAP is a cell line was established from a metastatic lesion of human prostatic adenocarcinoma. MM.1 and RPMI-8226 are human multiple myeloma cell lines. OVCAR3 and SKOV3 are ovarian cancer cell lines. Panc-1 is a pancreatic cancer cell line. PC3 is a prostate cancer cell line. Raji is a Burkitt's lymphoma cell line. RL is a non-Hodgkin's lymphoma cell line. […]

[3] = test system: Jurkat (human T-cell leukemia) cells; experiment: Reduction in cell viability, Jurkat cells (Table 6); type: cell-based; conditions: 50% reduction in cell viability
Text: The IC50 values indicate the concentrations of avicin D/compound 8 required to induce a 50% reduction in call viability. These studies were done in Jurkat (human T-cell leukemia) cells and have been described previously in Haridas et al., 2001, which is incorporated herein by reference.

[4] = test system: chemotaxis; experiment: Inhibition of chemotaxis; type: cell-based; conditions: preliminary data
[5] = test system: HS27; experiment: MTT growth inhibition, HS27; type: cell-based; conditions: HS27 human foreskin fibroblast cells, 72 hrs
Procedure: as §1, §2

[6] = test system: WSU-DLCL2; experiment: MTT growth inhibition, WSU-DLCL2; type: cell-based, human; conditions: WSU-DLCL2 cells, 72 hrs
Procedure: as §1, §2

[7] = test system: HepG2; experiment: MTT growth inhibition, HepG2; type: cell-based, human; conditions: HepG2 cells, 72 hrs
Procedure: as §1, §2

[8] = test system: JEKO-1; experiment: MTT growth inhibition, JEKO-1; type: cell-based; conditions: JEKO-1 cells, 72 hrs
Procedure: as §1, §2

[9] = test system: MCF7; experiment: MTT growth inhibition, MCF7; type: cell-based; conditions: MCF7 cells, 72 hrs
Procedure: as §1, §2

[10] = test system: CAKI-2; experiment: MTT growth inhibition, CAKI-2; type: cell-based, human; conditions: CAKI-2 cells, 72 hrs
Procedure: as §1, §2

[11] = test system: MINO; experiment: MTT growth inhibition, MINO; type: cell-based; conditions: MINO cells, 72 hrs
Procedure: as §1, §2

[12] = test system: Panc-1; experiment: MTT growth inhibition, Panc-1; type: cell-based; conditions: Panc-1 cells, 72 hrs
Procedure: as §1, §2

[13] = test system: 3T3 L1; experiment: MTT growth inhibition, 3T3 L1; type: cell-based; conditions: 3T3 L1 fibroblast cells, 72 hrs
Procedure: as §1, §2

[14] = test system: LnCAP; experiment: MTT growth inhibition, LnCAP; type: cell-based, human; conditions: LnCAP cells, 72 hrs
Procedure: as §1, §2

[15] = test system: CAKI-1; experiment: MTT growth inhibition, CAKI-1; type: cell-based, human; conditions: CAKI-1 cells, 72 hrs
Procedure: as §1, §2

[16] = test system: IL-6; experiment: IL-6 expression, constitutive and TNF-induced (FIG. 2B); type: cell-based
[17] = test system: BT474; experiment: MTT growth inhibition, BT474; type: cell-based; conditions: BT474 cells, 72 hrs
Procedure: as §1, §2

## C=C[C@](C)(O)CC/C=C(\CO)C(=O)O[C@H]1[C@H](O)[C@@H](O)[C@H](O[C@@](C)(C=C)CC/C=C(\CO)C(=O)O[C@H]2C[C@]3(C(=O)O[C@@H]4O[C@H](CO)[C@@H](O)[C@H](O)[C@H]4O[C@@H]4O[C@@H](C)[C@H](O[C@@H]5O[C@@H](CO)[C@H](O)[C@H]5O)[C@@H](O[C@@H]5O[C@H](CO)[C@@H](O)[C@H](O)[C@H]5O)[C@H]4O)[C@H](O)C[C@]4(C)C(=CC[C@@H]5[C@@]6(C)CC[C@H](O[C@@H]7O[C@H](CO[C@@H]8O[C@H](C)[C@H](O)[C@H](O)[C@H]8O[C@@H]8OC[C@@H](O)[C@H](O)[C@H]8O)[C@@H](O)[C@H](O)[C@H]7NC(C)=O)C(C)(C)[C@@H]6CC[C@]54C)[C@@H]3CC2(C)C)O[C@@H]1C [Avicin D]
[1]
  development of mammospheres as measured by the size of the spheres: appear to inhibit the development of these spheres
[2]
  IC50: 1270 nM
[3]
  IC50: 180 nM
[4]
  inhibition of chemotaxis: effective at inhibiting chemotaxis at picomolar and nanomolar concentrations
[5]
  IC50: 6100 nM
[6]
  IC50: 520 nM
[7]
  IC50: 440 nM
[8]
  IC50: 420 nM
[9]
  IC50: 15200 nM
[10]
  IC50: 2060 nM
[11]
  IC50: 420 nM
[12]
  IC50: 520 nM
[13]
  IC50: 3800 nM
[14]
  IC50: 470 nM
[15]
  IC50: 1120 nM
[16]
  expression of IL-6: suppresses the expression of both constituitive and TNF-induced IL-6
[17]
  IC50: 2800 nM
